The text below walks through data of patent publication US20240208992A1, “MACROCYCLES AS CFTR MODULATORS” (Idorsia Pharmaceuticals Ltd, priority 2021, published 2024).

The target of this experiment is human F508del-CFTR (Homo sapiens, UniProt P13569, DEL508-508). The experiment is described as follows: F508del-CFTR cell surface expression (corrector activity), DiscoveRx ß-galactosidase complementation chemiluminescence assay in recombinant U2OS cell line.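 For all read-outs here: U2OS cells co-expressing ProLink-tagged F508del-CFTR and a membrane-anchored enzyme acceptor, where more surface CFTR restores β-galactosidase activity measured by chemiluminescence.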 Conditions: U2OS cells, 16h compound incubation; for EC50: EC50, F508del-CFTR cell surface expression, geomean of several measurements; for Emax: U2OS, in relation to the Emax of the corrector lumacaftor (=100%), arithmetic mean.
Chain of human F508del-CFTR (P13569 with tags, fused parts or gaps DEL508-508): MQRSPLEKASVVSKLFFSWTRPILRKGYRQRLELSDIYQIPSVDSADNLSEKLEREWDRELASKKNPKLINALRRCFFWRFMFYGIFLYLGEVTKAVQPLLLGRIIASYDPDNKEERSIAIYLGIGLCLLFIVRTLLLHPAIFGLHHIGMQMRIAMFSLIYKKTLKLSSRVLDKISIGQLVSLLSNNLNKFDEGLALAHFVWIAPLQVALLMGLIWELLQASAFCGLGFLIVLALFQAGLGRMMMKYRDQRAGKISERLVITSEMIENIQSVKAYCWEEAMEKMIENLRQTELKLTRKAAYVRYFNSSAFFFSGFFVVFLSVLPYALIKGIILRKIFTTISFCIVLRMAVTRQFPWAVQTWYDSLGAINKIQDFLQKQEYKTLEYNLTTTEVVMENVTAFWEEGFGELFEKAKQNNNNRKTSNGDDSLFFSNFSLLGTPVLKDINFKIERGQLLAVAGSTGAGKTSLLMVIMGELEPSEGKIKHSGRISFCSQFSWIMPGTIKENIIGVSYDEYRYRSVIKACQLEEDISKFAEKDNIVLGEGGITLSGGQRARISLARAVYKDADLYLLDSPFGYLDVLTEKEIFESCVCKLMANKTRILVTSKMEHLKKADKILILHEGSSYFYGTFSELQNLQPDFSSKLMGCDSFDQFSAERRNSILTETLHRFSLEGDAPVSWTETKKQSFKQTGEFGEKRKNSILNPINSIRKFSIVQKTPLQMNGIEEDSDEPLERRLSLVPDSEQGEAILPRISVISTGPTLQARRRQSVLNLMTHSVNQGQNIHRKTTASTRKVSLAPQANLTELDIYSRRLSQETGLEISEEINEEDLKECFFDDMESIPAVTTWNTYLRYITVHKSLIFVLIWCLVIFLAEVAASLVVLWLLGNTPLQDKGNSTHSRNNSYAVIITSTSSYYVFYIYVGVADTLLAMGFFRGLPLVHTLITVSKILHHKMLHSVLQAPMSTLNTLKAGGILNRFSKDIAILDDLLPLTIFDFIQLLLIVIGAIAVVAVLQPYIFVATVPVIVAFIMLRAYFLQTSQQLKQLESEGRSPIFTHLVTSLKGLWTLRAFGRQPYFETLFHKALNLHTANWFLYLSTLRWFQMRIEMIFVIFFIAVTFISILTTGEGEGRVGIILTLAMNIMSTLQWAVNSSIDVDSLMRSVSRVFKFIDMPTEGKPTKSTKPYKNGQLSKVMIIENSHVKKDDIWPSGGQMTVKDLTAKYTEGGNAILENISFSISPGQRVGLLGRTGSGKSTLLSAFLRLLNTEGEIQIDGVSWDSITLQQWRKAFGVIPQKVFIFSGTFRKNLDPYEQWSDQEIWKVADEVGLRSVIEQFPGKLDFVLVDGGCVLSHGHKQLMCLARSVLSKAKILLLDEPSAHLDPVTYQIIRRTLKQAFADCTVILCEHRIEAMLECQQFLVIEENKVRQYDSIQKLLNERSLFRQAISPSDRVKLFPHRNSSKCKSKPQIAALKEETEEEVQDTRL

As for `CCOCC[C@@H]1C(=O)N[C@H](Cc2ccccc2)COc2ccc3cnc(C)cc3c2C(=O)N[C@H](C(=O)NCCc2nc(OC)no2)CC(=O)N(C)[C@@H](CC(C)C)C(=O)N1C` [Example 914, (3S,7S,10R,13R)-13-benzyl-10-(2-ethoxyethyl)-7-isobutyl-N-(2-(3-methoxy-1,2,4-oxadiazol-5-yl)ethyl)-6,9,20-trimethyl-1,5,8,11-tetraoxo-1,2,3,4,5,6,7,8,9,10,11,12,13,14-tetradecahydro-[1]oxa[4,7,10,14]tetraazacycloheptadecino[16,17-f]isoquinoline-3-carboxamide], the EC50 – broadly, the concentration that produces a half-maximal response – came to 368 nM and the maximum response (Emax) (in general, the maximal effect, on the per cent scale that the assay sets) was found to be 358%.
For `CCOCC[C@@H]1C(=O)N[C@H](Cc2ccccc2)COc2ccc3cnc(C)cc3c2C(=O)N[C@H](C(=O)NCCn2nnc(C3CC3)n2)CC(=O)N(C)[C@@H](CC(C)C)C(=O)N1C` [Example 915, (3S,7S,10R,13R)-13-benzyl-N-(2-(5-cyclopropyl-2H-tetrazol-2-yl)ethyl)-10-(2-ethoxyethyl)-7-isobutyl-6,9,20-trimethyl-1,5,8,11-tetraoxo-1,2,3,4,5,6,7,8,9,10,11,12,13,14-tetradecahydro-[1]oxa[4,7,10,14]tetraazacycloheptadecino[16,17-f]isoquinoline-3-carboxamide], the EC50 came out at 334 nM and the Emax was found to be 361%.
The like results for `COc1noc(CCNC(=O)[C@@H]2CC(=O)N(C)[C@@H](CC(C)C)C(=O)N(C)[C@H](Cc3nc(-c4ccc(F)cn4)no3)C(=O)N[C@H](Cc3ccccc3)COc3ccc4ncc(F)cc4c3C(=O)N2)n1` [Example 916, (3S,7S,10R,13R)-13-benzyl-20-fluoro-10-((3-(5-fluoropyridin-2-yl)-1,2,4-oxadiazol-5-yl)methyl)-7-isobutyl-N-(2-(3-methoxy-1,2,4-oxadiazol-5-yl)ethyl)-6,9-dimethyl-1,5,8,11-tetraoxo-1,2,3,4,5,6,7,8,9,10,11,12,13,14-tetradecahydro-[1]oxa[4,7,10,14]tetraazacycloheptadecino[16,17-f]quinoline-3-carboxamide] were, in that order, 196 nM and 470%.
The like results for `COc1noc(CCNC(=O)[C@@H]2CC(=O)N(C)[C@@H](CC(C)C)C(=O)N(C)[C@H](Cc3nc(-c4ccc(F)cn4)no3)C(=O)N[C@H](Cc3ccccc3)COc3ccc4cnc(C)cc4c3C(=O)N2)n1` [Example 917, (3S,7S,10R,13R)-13-benzyl-10-((3-(5-fluoropyridin-2-yl)-1,2,4-oxadiazol-5-yl)methyl)-7-isobutyl-N-(2-(3-methoxy-1,2,4-oxadiazol-5-yl)ethyl)-6,9,20-trimethyl-1,5,8,11-tetraoxo-1,2,3,4,5,6,7,8,9,10,11,12,13,14-tetradecahydro-[1]oxa[4,7,10,14]tetraazacycloheptadecino[16,17-f]isoquinoline-3-carboxamide] were, in that order, 487 nM and 398%.
In the same order, the values of `COc1noc(CCNC(=O)[C@@H]2CC(=O)N(C)[C@@H](CC(C)C)C(=O)N(C)[C@H](Cc3nc(C(F)(F)F)no3)C(=O)N[C@H](Cc3ccccc3)COc3ccc4cnc(C)cc4c3C(=O)N2)n1` [Example 918, (3S,7S,10R,13R)-13-benzyl-7-isobutyl-N-(2-(3-methoxy-1,2,4-oxadiazol-5-yl)ethyl)-6,9,20-trimethyl-1,5,8,11-tetraoxo-10-((3-(trifluoromethyl)-1,2,4-oxadiazol-5-yl)methyl)-1,2,3,4,5,6,7,8,9,10,11,12,13,14-tetradecahydro-[1]oxa[4,7,10,14]tetraazacycloheptadecino[16,17-f]isoquinoline-3-carboxamide] are 42 nM and 462%.
With `COc1noc(CCNC(=O)[C@@H]2CC(=O)N(C)[C@@H](CC(C)C)C(=O)N(C)[C@H](Cc3nc(C(F)(F)F)no3)C(=O)N[C@H](Cc3ccccc3)COc3cc(C)nc(OC)c3C(=O)N2)n1` [Example 919, (3R,6R,9S,13S)-3-benzyl-9-isobutyl-16-methoxy-N-(2-(3-methoxy-1,2,4-oxadiazol-5-yl)ethyl)-7,10,18-trimethyl-5,8,11,15-tetraoxo-6-((3-(trifluoromethyl)-1,2,4-oxadiazol-5-yl)methyl)-2,3,4,5,6,7,8,9,10,11,12,13,14,15-tetradecahydropyrido[3,4-p][1]oxa[4,7,10,14]tetraazacycloheptadecine-13-carboxamide], the EC50 worked out at 104 nM and the maximal effect (Emax) worked out at 443%.
The like results for `COc1noc(CCNC(=O)[C@@H]2CC(=O)N(C)[C@@H](CC(C)C)C(=O)N3CCCC[C@@H]3C(=O)N[C@H](Cc3ccccc3)COc3cc(C)c4ncccc4c3C(=O)N2)n1` [Example 920, (9S,13S,19aR,22R)-22-benzyl-13-isobutyl-N-(2-(3-methoxy-1,2,4-oxadiazol-5-yl)ethyl)-2,12-dimethyl-7,11,14,20-tetraoxo-7,8,9,10,11,12,13,14,17,18,19,19a,20,21,22,23-hexadecahydro-16H-pyrido[2′,1′:6,7][1]oxa[4,7,10,14]tetraazacycloheptadecino[16,17-f]quinoline-9-carboxamide] were, in that order, 175 nM and 380%.
In the same order, the values of `Cc1cc2c3c(ccc2cn1)OC[C@@H](Cc1ccccc1)NC(=O)[C@@H](Cc1nc(C(F)F)no1)N(C)C(=O)[C@H](CC(C)C)N(C)C(=O)C[C@@H](C(=O)NCCn1nnc(C2CC2)n1)NC3=O` [Example 921, (3S,7S,10R,13R)-13-benzyl-N-(2-(5-cyclopropyl-2H-tetrazol-2-yl)ethyl)-10-((3-(difluoromethyl)-1,2,4-oxadiazol-5-yl)methyl)-7-isobutyl-6,9,20-trimethyl-1,5,8,11-tetraoxo-1,2,3,4,5,6,7,8,9,10,11,12,13,14-tetradecahydro-[1]oxa[4,7,10,14]tetraazacycloheptadecino[16,17-f]isoquinoline-3-carboxamide] are 231 nM and 393%.
For `COc1noc(CCNC(=O)[C@@H]2CC(=O)N(C)[C@@H](CC(C)C)C(=O)N(C)C3(CC(F)(F)C3)C(=O)N[C@H](Cc3ccccc3)COc3ccc4ncc(F)cc4c3C(=O)N2)n1` [Example 922, (3′S,7′S,13′R)-13′-benzyl-3,3,20′-trifluoro-7′-isobutyl-N-(2-(3-methoxy-1,2,4-oxadiazol-5-yl)ethyl)-6′,9′-dimethyl-1′,5′,8′,11′-tetraoxo-2′,3′,4′,5′,6′,7′,8′,9′,11′,12′,13′,14′-dodecahydro-1′H-spiro[cyclobutane-1,10′-[1]oxa[4,7,10,14]tetraazacycloheptadecino[16,17-f]quinoline]-3′-carboxamide], the EC50 came to 302 nM and the maximum response (Emax) was 396%.
In the same order, the values of `Cc1cc2c(c3cccnc13)C(=O)N[C@H](C(=O)NCCn1nnc(C3CC3)n1)CC(=O)N(C)[C@@H](CC(C)C)C(=O)N(C)[C@H](Cc1nc(C(F)(F)F)no1)C(=O)N[C@H](Cc1ccccc1)CO2` [Example 923, (3S,7S,10R,13R)-13-benzyl-N-(2-(5-cyclopropyl-2H-tetrazol-2-yl)ethyl)-7-isobutyl-6,9,17-trimethyl-1,5,8,11-tetraoxo-10-((3-(trifluoromethyl)-1,2,4-oxadiazol-5-yl)methyl)-1,2,3,4,5,6,7,8,9,10,11,12,13,14-tetradecahydro-[1]oxa[4,7,10,14]tetraazacycloheptadecino[16,17-f]quinoline-3-carboxamide] are 26 nM and 500%.
For the molecule `CC(C)C[C@H]1C(=O)N(C)[C@H](Cc2nc(C(F)(F)F)no2)C(=O)N[C@H](Cc2ccccc2)COc2ccc3ncc(F)cc3c2C(=O)N[C@H](C(=O)NCCn2nnc(C3CC3)n2)CC(=O)N1C` [Example 924, (3S,7S,10R,13R)-13-benzyl-N-(2-(5-cyclopropyl-2H-tetrazol-2-yl)ethyl)-20-fluoro-7-isobutyl-6,9-dimethyl-1,5,8,11-tetraoxo-10-((3-(trifluoromethyl)-1,2,4-oxadiazol-5-yl)methyl)-1,2,3,4,5,6,7,8,9,10,11,12,13,14-tetradecahydro-[1]oxa[4,7,10,14]tetraazacycloheptadecino[16,17-f]quinoline-3-carboxamide], the EC50 was determined as 33 nM and the maximal effect (Emax) is 409%.
The like results for `CC(C)C[C@H]1C(=O)N(C)[C@H](Cc2nc(C(F)(F)F)no2)C(=O)N[C@H](Cc2ccccc2)COc2ccc3ncc(F)cc3c2C(=O)N[C@H](C(=O)NCCCOC(F)(F)F)CC(=O)N1C` [Example 925, (3S,7S,10R,13R)-13-benzyl-20-fluoro-7-isobutyl-6,9-dimethyl-1,5,8,11-tetraoxo-N-(3-(trifluoromethoxy)propyl)-10-((3-(trifluoromethyl)-1,2,4-oxadiazol-5-yl)methyl)-1,2,3,4,5,6,7,8,9,10,11,12,13,14-tetradecahydro-[1]oxa[4,7,10,14]tetraazacycloheptadecino[16,17-f]quinoline-3-carboxamide] were, in that order, 92 nM and 286%.
The like results for `COc1cc(CCNC(=O)[C@@H]2CC(=O)N(C)[C@@H](CC(C)C)C(=O)N(C)[C@]3(C[C@H](OC)C3)C(=O)N[C@H](Cc3ccccc3)COc3ccc4ncc(F)cc4c3C(=O)N2)on1` [Example 926, (1r,3S,3′S,7′S,13′R)-13′-benzyl-20′-fluoro-7′-isobutyl-3-methoxy-N-(2-(3-methoxyisoxazol-5-yl)ethyl)-6′,9′-dimethyl-1′,5′,8′,11′-tetraoxo-2′,3′,4′,5′,6′,7′,8′,9′,11′,12′,13′,14′-dodecahydro-1′H-spiro[cyclobutane-1,10′-[1]oxa[4,7,10,14]tetraazacycloheptadecino[16,17-f]quinoline]-3′-carboxamide] were, in that order, 759 nM and 416%.
